The record followed here is patent publication US20030134779A1, “Method and composition for treatment and/or prevention of antibiotic-resistant microorganism infections” (priority 2002, published 2003).

The assay deals with S. aureus strains. As to the kind of experiment: MIC / FIC determination, summary over strains. Type of assay: cell-based, Staphylococcus aureus. Conditions: with 0.5 mg/ml LF; all tested strains except ATCC 25923 and SHY97-3906 (needed 1 mg/ml LF). The source says: Staphylococcus aureus strains ATCC 25923 and 6538 and Escherichia coli ATCC 25922 were obtained from the American Type Culture Collection. Eight bovine mastitis clinical isolates of S. aureus (SHY97-3906, -3923, -4085 -4242, -4320 and -4343, RFT-1 and RFT-5) and one isolate of E. coli SHY97-3923-2 and one isolate of Kiebsiella pneumoniae SHY99-723-1 were kindly provided by the Laboratoire Provincial de Pathologie Animale of St-Hyacinthe and of Rock-Forest (Quebec, Canada), respectively. Nine β-lactam antibiotics resistant S. aureus strains (PC-1, NCTC 9789, 2076, 22260, ST79/741, 3804, RN9, FAR8, and FAR10) were obtained from Vanderbilt University School of Medicine (Nashville, Tenn., USA). […]
The MICs were determined by both macrodilution (1 ml/tube) and microdilution (100 μl/well) in sterile 96 well microtiter plates (International Nunc, Napierville, Ill.) techniques in three separate experiments according to the National Committee for Clinical Laboratory Standards (1992 and 1999) in three separate experiments. […] Effect of LF combination with antibiotic on MICs were determined by adding 0.5 mg or 1 mg/ml of LF to each antibiotic dilution. […] Effect of LF or LFC combination with antibiotic on MIC was also determined by checkerboard method using 96 well microtiter plates. […] The fractional inhibitory concentration (FIC) was calculated as described by Eliopoulos and Moellering (1991). […]

As for `CC1(C)S[C@@H]2[C@H](NC(=O)Cc3ccccc3)C(=O)N2[C@H]1C(=O)O` [penicillin G, Penicillin G], the “increase of inhibitory activity of penicillin” value is recorded as “two-fold”.
